Test results: ChEMBL document CHEMBL1201862, “PubChem BioAssay data set” (2004)
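Interpolation was linear, between the two tested concentrations surrounding the appropriate level; five concentrations were tested over 48 hours in 96-well plates. GI50 is the concentration that inhibits growth by half.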 Calls of active or inactive are those of the source. Rule as the data show it: active = GI50 up to about 1.1 µM and inactive = higher.

Experiments:
Assay in all cases: DTP human tumour cell line panel, 48 h
[1] = test system: A498
[2] = test system: BT-549
[3] = test system: CAKI-1
[4] = test system: CCRF-CEM
[5] = test system: COLO 205
[6] = test system: DU-145
[7] = test system: HCT-116
[8] = test system: HCT-15
[9] = test system: HL-60
[10] = test system: HOP-62
[11] = test system: HOP-92
[12] = test system: HT-29
[13] = test system: Hs-578T
[14] = test system: IGROV-1
[15] = test system: K562
[16] = test system: KM12
[17] = test system: LOX IMVI
[18] = test system: M14
[19] = test system: MDA-MB-231
[20] = test system: MDA-MB-435
[21] = test system: MDA-N
[22] = test system: MOLT-4
[23] = test system: NCI-H226
[24] = test system: NCI-H23
[25] = test system: NCI-H460
[26] = test system: OVCAR-3
[27] = test system: OVCAR-4
[28] = test system: OVCAR-5
[29] = test system: OVCAR-8
[30] = test system: PC-3
[31] = test system: RPMI-8226
[32] = test system: RXF 393
[33] = test system: SF-295
[34] = test system: SK-MEL-28
[35] = test system: SK-MEL-2
[36] = test system: SK-MEL-5
[37] = test system: SK-OV-3
[38] = test system: SN12C
[39] = test system: SNB-19
[40] = test system: SNB-75
[41] = test system: SR
[42] = test system: SW-620
[43] = test system: T47D
[44] = test system: TK-10
[45] = test system: U-251
[46] = test system: UACC-257
[47] = test system: UACC-62
[48] = test system: UO-31
[49] = test system: 786-0
[50] = test system: A549
[51] = test system: ACHN
[52] = test system: EKVX
[53] = test system: HCC 2998
[54] = test system: MCF7
[55] = test system: Malme-3M
[56] = test system: NCI/ADR-RES
[57] = test system: SF-268
[58] = test system: SF-539
[59] = test system: NCI-H522

CC(C)(C)[Si](C)(C)OCC1CCC(n2cnc3c(N)ncnc32)O1 (stereo not drawn)
GI50 [1]: > 100 µM (inactive)
GI50 [2]: 27 µM (inactive)
GI50 [3]: > 100 µM (inactive)
GI50 [4]: 13.9 µM (inactive)
GI50 [5]: > 100 µM (inactive)
GI50 [6]: 73.8 µM (inactive)
GI50 [7]: 39.2 µM (inactive)
GI50 [8]: 72.1 µM
GI50 [9]: 48.9 µM (inactive)
GI50 [10]: 95.7 µM (inactive)
GI50 [11]: > 100 µM (inactive)
GI50 [12]: 94.4 µM (inactive)
GI50 [13]: 72.1 µM (inactive)
GI50 [14]: 53.8 µM (inactive)
GI50 [15]: 3.45 µM (inactive)
GI50 [16]: 39.1 µM (inactive)
GI50 [17]: > 100 µM (inactive)
GI50 [18]: 38.8 µM (inactive)
GI50 [19]: 54.1 µM (inactive)
GI50 [20]: 25.9 µM (inactive)
GI50 [21]: 47.1 µM (inactive)
GI50 [22]: 14.7 µM (inactive)
GI50 [23]: > 100 µM (inactive)
GI50 [24]: 30.6 µM (inactive)
GI50 [25]: 54.7 µM (inactive)
GI50 [26]: 48.9 µM (inactive)
GI50 [27]: > 100 µM (inactive)
GI50 [28]: > 100 µM (inactive)
GI50 [29]: 45.4 µM (inactive)
GI50 [30]: 28.2 µM (inactive)
GI50 [31]: 42 µM (inactive)
GI50 [32]: 84.1 µM (inactive)
GI50 [33]: 81.8 µM (inactive)
GI50 [34]: 72.8 µM (inactive)
GI50 [35]: 32.1 µM (inactive)
GI50 [36]: 17.1 µM (inactive)
GI50 [37]: 65 µM (inactive)
GI50 [38]: 69.2 µM (inactive)
GI50 [39]: > 100 µM (inactive)
GI50 [40]: 67.8 µM (inactive)
GI50 [41]: > 10 µM (inactive)
GI50 [42]: > 100 µM (inactive)
GI50 [43]: 27.2 µM (inactive)
GI50 [44]: > 100 µM (inactive)
GI50 [45]: > 100 µM (inactive)
GI50 [46]: 33.7 µM (inactive)
GI50 [47]: 59.2 µM (inactive)
GI50 [48]: 44.4 µM (inactive)

COc1ccc(/C=N/n2c(-c3ccccc3)n[nH]c2=O)cc1
GI50 [49]: > 100 µM (inactive)
GI50 [1]: 25.3 µM (inactive)
GI50 [50]: 95.1 µM (inactive)
GI50 [51]: > 100 µM (inactive)
GI50 [2]: > 100 µM (inactive)
GI50 [3]: > 100 µM (inactive)
GI50 [4]: > 100 µM (inactive)
GI50 [5]: > 100 µM (inactive)
GI50 [6]: > 100 µM (inactive)
GI50 [52]: > 100 µM (inactive)
GI50 [53]: > 100 µM (inactive)
GI50 [7]: 74.5 µM (inactive)
GI50 [8]: > 100 µM
GI50 [10]: > 100 µM (inactive)
GI50 [12]: > 100 µM (inactive)
GI50 [13]: 50.1 µM (inactive)
GI50 [15]: > 100 µM (inactive)
GI50 [16]: 48.8 µM (inactive)
GI50 [18]: > 100 µM (inactive)
GI50 [54]: > 100 µM (inactive)
GI50 [19]: > 100 µM (inactive)
GI50 [20]: > 100 µM (inactive)
GI50 [21]: > 100 µM (inactive)
GI50 [22]: 46.9 µM (inactive)
GI50 [55]: > 100 µM (inactive)
GI50 [23]: > 100 µM (inactive)
GI50 [24]: > 100 µM (inactive)
GI50 [25]: > 100 µM (inactive)
GI50 [56]: > 100 µM (inactive)
GI50 [26]: > 100 µM (inactive)
GI50 [27]: 53.8 µM (inactive)
GI50 [28]: > 100 µM (inactive)
GI50 [29]: > 100 µM (inactive)
GI50 [30]: > 100 µM (inactive)
GI50 [31]: > 100 µM (inactive)
GI50 [57]: > 100 µM (inactive)
GI50 [33]: > 100 µM (inactive)
GI50 [58]: > 100 µM (inactive)
GI50 [34]: > 100 µM (inactive)
GI50 [35]: > 100 µM (inactive)
GI50 [37]: > 100 µM (inactive)
GI50 [38]: > 100 µM (inactive)
GI50 [39]: > 100 µM (inactive)
GI50 [40]: > 100 µM (inactive)
GI50 [42]: > 100 µM (inactive)
GI50 [43]: > 100 µM (inactive)
GI50 [45]: > 100 µM (inactive)
GI50 [46]: > 100 µM (inactive)
GI50 [47]: > 100 µM (inactive)
GI50 [48]: 95.3 µM (inactive)

Cc1nnc2sc(N/N=C/c3ccccc3)nn12
GI50 [49]: > 100 µM (inactive)
GI50 [1]: > 100 µM (inactive)
GI50 [50]: > 100 µM (inactive)
GI50 [51]: > 100 µM (inactive)
GI50 [2]: > 100 µM (inactive)
GI50 [3]: > 100 µM (inactive)
GI50 [4]: > 100 µM (inactive)
GI50 [5]: > 100 µM (inactive)
GI50 [6]: > 100 µM (inactive)
GI50 [52]: > 100 µM (inactive)
GI50 [7]: > 100 µM (inactive)
GI50 [8]: > 100 µM
GI50 [10]: > 100 µM (inactive)
GI50 [12]: > 100 µM (inactive)
GI50 [13]: > 100 µM (inactive)
GI50 [14]: > 100 µM (inactive)
GI50 [15]: > 100 µM (inactive)
GI50 [16]: > 100 µM (inactive)
GI50 [17]: > 100 µM (inactive)
GI50 [18]: > 100 µM (inactive)
GI50 [54]: > 100 µM (inactive)
GI50 [19]: > 100 µM (inactive)
GI50 [20]: > 100 µM (inactive)
GI50 [21]: > 100 µM (inactive)
GI50 [22]: > 100 µM (inactive)
GI50 [55]: > 100 µM (inactive)
GI50 [23]: > 100 µM (inactive)
GI50 [24]: > 100 µM (inactive)
GI50 [25]: > 100 µM (inactive)
GI50 [59]: > 100 µM (inactive)
GI50 [56]: > 100 µM (inactive)
GI50 [26]: > 100 µM (inactive)
GI50 [27]: > 100 µM (inactive)
GI50 [28]: > 100 µM (inactive)
GI50 [29]: > 100 µM (inactive)
GI50 [30]: > 100 µM (inactive)
GI50 [31]: > 100 µM (inactive)
GI50 [32]: > 100 µM (inactive)
GI50 [57]: 61.2 µM (inactive)
GI50 [33]: > 100 µM (inactive)
GI50 [58]: > 100 µM (inactive)
GI50 [34]: > 100 µM (inactive)
GI50 [35]: > 100 µM (inactive)
GI50 [36]: > 100 µM (inactive)
GI50 [37]: 27.4 µM (inactive)
GI50 [38]: > 100 µM (inactive)
GI50 [39]: > 100 µM (inactive)
GI50 [40]: > 100 µM (inactive)
GI50 [42]: > 100 µM (inactive)
GI50 [43]: > 100 µM (inactive)
GI50 [44]: > 100 µM (inactive)
GI50 [45]: > 100 µM (inactive)
GI50 [46]: > 100 µM (inactive)
GI50 [47]: 23.5 µM (inactive)
GI50 [48]: > 100 µM (inactive)
